Test results from PubChem BioAssay (NCI).
Values joined by “and” are separate entries in the source; they are usually repeats but may differ in a detail not shown here. Equal values may be shown once.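 In this assay, cells in 96-well plates receive the compound at five concentrations for 48 hours. Endpoints are linearly interpolated between the surrounding concentrations. GI50: concentration for 50% inhibition of growth. At the TGI there is no net growth.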

What was measured:
Assay in all cases: NCI tumour cell line growth inhibition, 48 h
DLD-1 colon = system: DLD-1 colon
LXFL 529 NSCLC = system: LXFL 529 NSCLC
M19-MEL melanoma = system: M19-MEL melanoma
HOP-18 NSCLC = system: HOP-18 NSCLC
KM20L2 colon = system: KM20L2 colon
XF 498 CNS = system: XF 498 CNS
P388/ADR leukemia = system: P388/ADR leukemia
MDA-N = system: MDA-N
DMS 273 small cell lung = system: DMS 273 small cell lung
RXF-631 renal = system: RXF-631 renal

Row | SMILES | TGI (DLD-1 colon) | TGI (LXFL 529 NSCLC) | TGI (M19-MEL melanoma) | TGI (HOP-18 NSCLC) | TGI (KM20L2 colon) | TGI (XF 498 CNS) | TGI (MDA-N) | TGI (DMS 273 small cell lung) | also measured
1 | CC(=O)[CH-]C(=O)c1ccccc1.CC(=O)[CH-]C(=O)c1ccccc1.CN(C)c1ccc([O-])cc1.CN(C)c1ccc([O-])cc1.Cl.[Ti+4] | > 31.6 µM | > 31.6 µM | 26.4 µM | > 31.6 µM | > 31.6 µM | – | – | – | GI50 (DLD-1 colon): 15.6 µM; GI50 (LXFL 529 NSCLC): 16 µM; GI50 (M19-MEL melanoma): 15.1 µM; GI50 (HOP-18 NSCLC): 23.1 µM; GI50 (KM20L2 colon): 20.4 µM
2 | COC(=O)C1(C(C)C)CCc2c(OC)ccc(OC)c2C1=O (stereo not given) | > 100 µM | > 100 µM | > 100 µM | > 100 µM | > 100 µM | > 100 µM | – | – | –
3 | O=C(Nc1ccccc1)c1c(O)[nH]c(=S)[nH]c1=O | 90 µM and > 250 µM | – | 118 µM | 118 µM and 184 µM | 125 µM and > 250 µM | 19.5 µM and 155 µM | 125 µM | 78.9 µM | GI50 (DLD-1 colon): 109 µM; GI50 (P388/ADR leukemia): 46.9 µM; TGI (P388/ADR leukemia): 80.6 µM and 116 µM; GI50 (HOP-18 NSCLC): 17.3 µM; GI50 (KM20L2 colon): 87.2 µM; GI50 (XF 498 CNS): 8.86 µM and 61.7 µM
4 | O=C(CC(=O)c1cccc2ccccc12)C(=O)Nc1ccc(Cl)cc1 | > 100 µM | > 100 µM | > 100 µM | > 100 µM | > 100 µM | > 100 µM | – | > 100 µM | TGI (RXF-631 renal): > 100 µM
5 | COc1cc2cc(OC)c3cc4c(cc3c2c(OC)c1OC)OCO4 | 51.5 µM | > 100 µM | 48.8 µM | > 100 µM | 53.5 µM | – | – | 35.6 µM | TGI (RXF-631 renal): > 100 µM
6 | Cc1cnc(NCCCN(C)C)c2c1[nH]c1ccc3cc(O)ccc3c12 | 3.7 µM | 1.76 µM | 1.25 µM | 5.97 µM | 2.29 µM | 0.806 µM | 2.21 µM | 1.24 µM | –
7 | CCn1c(C)nn2c(=O)c3ccccc3nc2c1=O | > 100 µM | > 100 µM | > 100 µM | > 100 µM | > 100 µM | > 100 µM | – | > 100 µM | –
8 | CC1(C)C(=O)/C=C\C(=O)C(C)(C)C2=CC=C(O2)C(C)(C)C(=O)/C=C\C(=O)C(C)(C)C2=CC=C1O2 | – | > 100 µM | > 100 µM | > 100 µM | > 100 µM | > 100 µM | – | > 100 µM | –
9 | Cc1nc2c(ccc3ncccc32)[nH]1 | > 100 µM | > 100 µM | > 100 µM | > 100 µM | > 100 µM | – | – | > 100 µM | –
10 | C=CCOc1ccc2c(C)cc(=O)oc2c1C | – | – | – | – | – | – | > 100 µM | – | –
11 | CCCC1C(=O)CCc2c(OC)ccc(OC)c21 (stereo not given) | > 100 µM | > 100 µM | > 100 µM | > 100 µM | > 100 µM | > 100 µM | – | > 100 µM | –
12 | COC(=O)CC[N+]1=CCC(c2ccccc2)(c2ccccc2)O1 | – | – | – | – | – | – | > 100 µM | – | –
13 | O=C(O)CCNCCCNCCC(=O)O | > 100 µM | > 100 µM | > 100 µM | > 100 µM | > 100 µM | > 100 µM | – | > 100 µM | TGI (RXF-631 renal): > 100 µM
14 | COc1cccc(C2c3cc4c(cc3OC(C)(N3CCCC3)C2C)OCO4)c1O (stereo not given) | – | – | – | – | – | – | 5.81 µM | – | –
15 | COC(=O)/C(C#N)=C1\NC(=O)c2ccccc21 | > 100 µM | > 100 µM | > 100 µM | > 100 µM | > 100 µM | – | – | > 100 µM | –
16 | CCOC(=O)C(C)(C)Oc1ccc2c(-c3ccccc3)cc(=O)oc2c1 | > 100 µM | 94.8 µM | 98 µM | – | > 100 µM | 47.9 µM | – | > 100 µM | –
17 | Cc1cc(NS(=O)(=O)c2ccc(Nc3c4ccccc4nc4c(C(=O)N5CCN(CCOS(C)(=O)=O)CC5)cccc34)cc2)no1 | > 100 µM | – | > 100 µM | – | > 100 µM | > 100 µM | – | > 100 µM | –
18 | COc1cc2ccnc([C@@H](OC(=O)c3ccccc3)c3ccc(OC)c(OC)c3OC)c2cc1OC | 80.2 µM | > 100 µM | > 100 µM | > 100 µM | > 100 µM | – | – | – | TGI (RXF-631 renal): > 100 µM
19 | Cc1ccsc1C(=S)Nc1ccc(Cl)c(/C=N/OC(C)(C)C)c1 | – | – | – | – | – | – | > 100 µM | – | –
20 | COC([CH2][Hg][n]1cnc2c1c(=O)n(C)c(=O)n2C)CN1C(=O)c2ccccc2S1(=O)=O (stereo not given) | – | – | – | – | – | – | > 100 µM | – | GI50 (MDA-N): > 100 µM
